Measurements: ChEMBL document CHEMBL4002586, “Aurone Mannich base derivatives as promising multifunctional agents with acetylcholinesterase inhibition, anti-β-amyloid aggragation and neuroprotective properties for the treatment of Alzheimer's disease” (Eur J Med Chem, 2017)

Biological target: T1, Amine oxidase [flavin-containing] A (Homo sapiens, UniProt P21397)
T1 sequence (P21397 whole entry): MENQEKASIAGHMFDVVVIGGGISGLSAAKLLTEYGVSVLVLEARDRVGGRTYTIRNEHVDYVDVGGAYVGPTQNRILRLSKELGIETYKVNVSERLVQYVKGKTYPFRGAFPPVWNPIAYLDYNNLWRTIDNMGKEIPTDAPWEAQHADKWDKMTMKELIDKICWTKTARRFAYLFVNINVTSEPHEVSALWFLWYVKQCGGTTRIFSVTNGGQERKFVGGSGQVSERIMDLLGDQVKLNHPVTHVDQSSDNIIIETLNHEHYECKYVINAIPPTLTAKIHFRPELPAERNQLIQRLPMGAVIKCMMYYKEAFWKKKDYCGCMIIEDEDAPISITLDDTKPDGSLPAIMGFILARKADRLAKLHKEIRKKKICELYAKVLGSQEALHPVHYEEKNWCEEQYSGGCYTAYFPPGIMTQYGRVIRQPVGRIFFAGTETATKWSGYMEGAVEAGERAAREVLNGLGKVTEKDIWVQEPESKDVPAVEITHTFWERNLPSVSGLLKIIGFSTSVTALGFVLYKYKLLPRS
Assay: Inhibition of recombinant human MAO-A expressed in baculovirus infected BTI insect cells at 10 uM using kynuramine as substrate incubated for 30 mins by fluorescence assay relative to control
Details: 0.5 h

Compound	inhibition at 10 µM [%]
COc1cc2c(cc1OC)C(=O)/C(=C/c1ccc(CN3CCN(Cc4ccccc4)CC3)c(O)c1)O2	15.3
COc1cc2c(cc1OC)C(=O)/C(=C/c1ccc(CN3CCCC3)c(O)c1)O2	62.9
COc1cc2c(cc1OC)C(=O)/C(=C/c1ccc(CN3CCOCC3)c(O)c1)O2	12.1
CCN1CCN(Cc2ccc(/C=C3\Oc4cc(OC)c(OC)cc4C3=O)cc2O)CC1	15.1

Biological target: T2, Acetylcholinesterase (Rattus norvegicus) (UniProt P37136)
T2 sequence (whole entry): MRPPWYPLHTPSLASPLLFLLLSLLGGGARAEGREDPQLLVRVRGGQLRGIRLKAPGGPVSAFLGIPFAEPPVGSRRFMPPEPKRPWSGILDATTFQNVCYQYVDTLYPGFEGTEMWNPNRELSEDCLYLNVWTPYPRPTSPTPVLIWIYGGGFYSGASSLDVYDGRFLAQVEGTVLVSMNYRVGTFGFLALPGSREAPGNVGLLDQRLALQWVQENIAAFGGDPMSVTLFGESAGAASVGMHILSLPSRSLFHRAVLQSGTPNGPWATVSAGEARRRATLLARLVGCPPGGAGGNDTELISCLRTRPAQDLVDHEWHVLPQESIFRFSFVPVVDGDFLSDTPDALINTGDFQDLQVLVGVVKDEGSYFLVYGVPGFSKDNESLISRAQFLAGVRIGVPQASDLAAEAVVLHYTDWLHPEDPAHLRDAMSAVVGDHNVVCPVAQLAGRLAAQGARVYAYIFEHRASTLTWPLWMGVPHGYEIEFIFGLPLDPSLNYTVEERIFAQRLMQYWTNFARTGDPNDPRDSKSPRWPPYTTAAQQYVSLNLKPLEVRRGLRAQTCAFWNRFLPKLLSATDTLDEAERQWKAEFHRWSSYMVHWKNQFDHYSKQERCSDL
Assay: Inhibition of AChE in rat brain cortex homogenates at 50 uM using acetylthiocholine iodide as substrate in presence of BuChE inhibitor tetraisopropyl pyrophosphoramide measured after 15 mins by Ellman's method relative to control
Details: not given

Compound	inhibition [%]
COc1cc2c(cc1OC)C(=O)/C(=C/c1ccc(CN3CCN(Cc4ccccc4)CC3)c(O)c1)O2	< 5

Biological target: Acetylcholinesterase (Electrophorus electricus) (UniProt O42275)
Sequence (O42275 24-633 limits assumed): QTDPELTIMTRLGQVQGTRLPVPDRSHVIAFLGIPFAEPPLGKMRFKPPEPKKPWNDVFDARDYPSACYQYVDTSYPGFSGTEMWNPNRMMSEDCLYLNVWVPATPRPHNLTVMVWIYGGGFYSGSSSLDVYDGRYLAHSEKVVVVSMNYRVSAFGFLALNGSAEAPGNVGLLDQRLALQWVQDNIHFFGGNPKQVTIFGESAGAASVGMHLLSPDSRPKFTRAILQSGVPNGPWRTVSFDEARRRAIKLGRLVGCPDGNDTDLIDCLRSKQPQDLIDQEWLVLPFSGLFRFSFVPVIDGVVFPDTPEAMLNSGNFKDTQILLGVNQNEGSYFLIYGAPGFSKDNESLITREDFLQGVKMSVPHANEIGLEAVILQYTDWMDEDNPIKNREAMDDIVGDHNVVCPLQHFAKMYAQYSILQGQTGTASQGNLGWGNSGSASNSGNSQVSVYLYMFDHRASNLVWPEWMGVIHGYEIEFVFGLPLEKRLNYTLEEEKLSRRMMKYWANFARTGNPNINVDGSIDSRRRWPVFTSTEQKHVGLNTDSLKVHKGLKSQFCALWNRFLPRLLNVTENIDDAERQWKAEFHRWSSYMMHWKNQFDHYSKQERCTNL
Assay: Inhibition of Electrophorus electricus AChE at 50 uM using acetylthiocholine iodide as substrate measured after 15 mins by Ellman's method relative to control
Details: not given

Compound	inhibition [%]
COc1cc2c(cc1OC)C(=O)/C(=C/c1ccc(CN3CCN(Cc4ccccc4)CC3)c(O)c1)O2	< 5

System: not listed separately
Assay: Antioxidant activity assessed as inhibition of AAPH-induced peroxyl radical generation at 5 uM measured as trolox equivalent preincubated for 15 mins followed by AAPH addition measured every 60 secs for 90 mins by ORAC-FL assay
Type: functional
Details: not given

Compound	Activity [equiv]
COc1cc2c(cc1OC)C(=O)/C(=C/c1ccc(CN3CCN(Cc4ccccc4)CC3)c(O)c1)O2	1.01
COc1cc2c(cc1OC)C(=O)/C(=C/c1ccc(CN3CCCC3)c(O)c1)O2	1.79
COc1cc2c(cc1OC)C(=O)/C(=C/c1ccc(CN3CCOCC3)c(O)c1)O2	1.58
CCN1CCN(Cc2ccc(/C=C3\Oc4cc(OC)c(OC)cc4C3=O)cc2O)CC1	1.61

Biological target: Acetylcholinesterase (Electrophorus electricus, UniProt O42275)
Sequence (O42275 whole entry): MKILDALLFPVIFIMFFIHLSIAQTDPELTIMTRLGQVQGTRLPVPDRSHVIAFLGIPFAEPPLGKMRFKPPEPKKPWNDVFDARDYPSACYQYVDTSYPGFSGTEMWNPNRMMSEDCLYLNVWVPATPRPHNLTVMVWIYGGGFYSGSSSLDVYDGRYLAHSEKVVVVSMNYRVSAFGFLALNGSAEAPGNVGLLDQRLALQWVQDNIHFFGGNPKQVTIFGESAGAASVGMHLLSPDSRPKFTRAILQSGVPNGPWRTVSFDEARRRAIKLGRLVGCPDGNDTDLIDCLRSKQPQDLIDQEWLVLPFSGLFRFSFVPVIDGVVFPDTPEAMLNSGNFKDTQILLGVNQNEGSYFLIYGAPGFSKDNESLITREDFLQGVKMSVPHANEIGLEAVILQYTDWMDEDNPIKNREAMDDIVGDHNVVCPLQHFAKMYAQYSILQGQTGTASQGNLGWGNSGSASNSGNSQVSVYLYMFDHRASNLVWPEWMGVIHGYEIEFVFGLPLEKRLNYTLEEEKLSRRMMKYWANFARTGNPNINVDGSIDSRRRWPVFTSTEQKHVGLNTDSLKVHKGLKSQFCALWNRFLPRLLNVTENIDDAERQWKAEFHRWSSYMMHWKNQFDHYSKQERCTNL
Assay: Inhibition of Electrophorus electricus AChE using acetylthiocholine iodide as substrate measured after 15 mins by Ellman's method
Details: not given

Compound	IC50 [µM]
COc1cc2c(cc1OC)C(=O)/C(=C/c1ccc(CN3CCCC3)c(O)c1)O2	2.7
COc1cc2c(cc1OC)C(=O)/C(=C/c1ccc(CN3CCOCC3)c(O)c1)O2	20.2
CCN1CCN(Cc2ccc(/C=C3\Oc4cc(OC)c(OC)cc4C3=O)cc2O)CC1	11.7

Biological target: T3, Acetylcholinesterase (Rattus norvegicus, UniProt P37136)
T3 sequence (P37136 whole entry): T2 sequence (whole entry)
Assay: Inhibition of AChE in rat brain cortex homogenates using acetylthiocholine iodide as substrate in presence of BuChE inhibitor tetraisopropyl pyrophosphoramide measured after 15 mins by Ellman's method
Details: not given

Compound	IC50 [µM]
COc1cc2c(cc1OC)C(=O)/C(=C/c1ccc(CN3CCCC3)c(O)c1)O2	0.246
COc1cc2c(cc1OC)C(=O)/C(=C/c1ccc(CN3CCOCC3)c(O)c1)O2	8.66
CCN1CCN(Cc2ccc(/C=C3\Oc4cc(OC)c(OC)cc4C3=O)cc2O)CC1	24

Biological target: Acetylcholinesterase (Homo sapiens, UniProt P22303)
Sequence (P22303 whole entry): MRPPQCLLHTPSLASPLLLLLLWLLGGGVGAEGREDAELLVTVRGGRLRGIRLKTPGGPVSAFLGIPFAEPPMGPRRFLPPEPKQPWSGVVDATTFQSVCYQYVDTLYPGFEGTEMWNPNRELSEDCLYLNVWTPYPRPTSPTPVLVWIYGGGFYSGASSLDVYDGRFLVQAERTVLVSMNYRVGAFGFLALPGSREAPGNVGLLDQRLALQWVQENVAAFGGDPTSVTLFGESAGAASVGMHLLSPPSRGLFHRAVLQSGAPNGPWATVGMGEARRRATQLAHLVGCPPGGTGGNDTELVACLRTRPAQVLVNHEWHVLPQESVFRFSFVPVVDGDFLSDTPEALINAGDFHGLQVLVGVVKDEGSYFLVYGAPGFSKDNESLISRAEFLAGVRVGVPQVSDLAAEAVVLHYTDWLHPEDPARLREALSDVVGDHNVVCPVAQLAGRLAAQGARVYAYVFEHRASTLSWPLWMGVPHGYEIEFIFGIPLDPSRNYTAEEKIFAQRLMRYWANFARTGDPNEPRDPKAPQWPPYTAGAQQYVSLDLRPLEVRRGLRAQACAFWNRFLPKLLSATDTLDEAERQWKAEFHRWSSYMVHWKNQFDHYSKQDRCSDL
Assay: Inhibition of human erythrocyte AChE using acetylthiocholine iodide as substrate measured after 15 mins by Ellman's method
Details: not given

Compound	IC50 [µM]
COc1cc2c(cc1OC)C(=O)/C(=C/c1ccc(CN3CCCC3)c(O)c1)O2	1.32
COc1cc2c(cc1OC)C(=O)/C(=C/c1ccc(CN3CCOCC3)c(O)c1)O2	6
CCN1CCN(Cc2ccc(/C=C3\Oc4cc(OC)c(OC)cc4C3=O)cc2O)CC1	32.1

Biological target: Amyloid-beta precursor protein (Homo sapiens) (UniProt P05067)
Sequence (P05067 whole entry, the tested form may be a part): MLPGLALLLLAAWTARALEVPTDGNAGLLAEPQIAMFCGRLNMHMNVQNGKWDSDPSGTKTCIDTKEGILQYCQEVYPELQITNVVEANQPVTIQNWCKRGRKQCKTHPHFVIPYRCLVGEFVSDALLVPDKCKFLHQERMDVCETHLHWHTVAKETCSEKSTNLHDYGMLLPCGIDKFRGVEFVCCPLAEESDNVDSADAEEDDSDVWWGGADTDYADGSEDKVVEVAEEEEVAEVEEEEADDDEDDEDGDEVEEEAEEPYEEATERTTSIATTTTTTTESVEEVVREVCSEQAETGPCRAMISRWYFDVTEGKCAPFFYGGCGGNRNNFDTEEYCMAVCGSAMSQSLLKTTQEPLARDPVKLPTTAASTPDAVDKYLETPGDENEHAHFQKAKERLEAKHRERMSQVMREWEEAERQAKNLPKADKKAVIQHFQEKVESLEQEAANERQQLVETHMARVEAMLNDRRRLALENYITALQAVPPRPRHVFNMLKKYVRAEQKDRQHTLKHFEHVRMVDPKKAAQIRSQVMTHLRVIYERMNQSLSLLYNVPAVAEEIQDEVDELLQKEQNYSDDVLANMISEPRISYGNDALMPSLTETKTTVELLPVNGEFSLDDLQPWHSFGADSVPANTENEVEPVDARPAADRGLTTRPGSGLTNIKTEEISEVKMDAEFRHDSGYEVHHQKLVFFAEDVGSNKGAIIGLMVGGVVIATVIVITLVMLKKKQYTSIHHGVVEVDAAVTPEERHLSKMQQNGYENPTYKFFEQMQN
Assay: Inhibition of self-induced aggregation of HFIP-treated human amyloid beta (1 to 42 residues) at 25 uM after 24 hrs by thioflavin T-based fluorometric assay relative to control
Details: not given

Compound	inhibition [%]
COc1cc2c(cc1OC)C(=O)/C(=C/c1ccc(CN3CCN(Cc4ccccc4)CC3)c(O)c1)O2	41.8
COc1cc2c(cc1OC)C(=O)/C(=C/c1ccc(CN3CCCC3)c(O)c1)O2	57.2
COc1cc2c(cc1OC)C(=O)/C(=C/c1ccc(CN3CCOCC3)c(O)c1)O2	31.5
CCN1CCN(Cc2ccc(/C=C3\Oc4cc(OC)c(OC)cc4C3=O)cc2O)CC1	49.1

Biological target: butyrylcholinesterase (BuChE) (Rattus norvegicus, UniProt Q9JKC1)
Sequence (Q9JKC1 whole entry): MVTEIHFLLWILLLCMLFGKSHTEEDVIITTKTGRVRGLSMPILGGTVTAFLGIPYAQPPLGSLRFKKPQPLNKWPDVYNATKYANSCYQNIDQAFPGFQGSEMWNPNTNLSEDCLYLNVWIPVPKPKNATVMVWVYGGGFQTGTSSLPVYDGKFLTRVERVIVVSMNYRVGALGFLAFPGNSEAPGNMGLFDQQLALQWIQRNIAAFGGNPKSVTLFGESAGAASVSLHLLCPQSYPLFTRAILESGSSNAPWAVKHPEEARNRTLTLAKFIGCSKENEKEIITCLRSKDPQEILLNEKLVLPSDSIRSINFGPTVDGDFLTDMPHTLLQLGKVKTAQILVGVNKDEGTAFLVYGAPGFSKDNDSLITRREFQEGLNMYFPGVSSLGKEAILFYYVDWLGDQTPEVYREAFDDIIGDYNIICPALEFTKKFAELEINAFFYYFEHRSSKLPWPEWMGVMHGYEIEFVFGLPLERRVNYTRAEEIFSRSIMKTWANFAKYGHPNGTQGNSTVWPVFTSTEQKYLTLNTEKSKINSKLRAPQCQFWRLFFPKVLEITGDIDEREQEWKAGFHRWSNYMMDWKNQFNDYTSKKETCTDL
Assay: Inhibition of BuChE in rat serum at 50 uM using butyrylthiocholine as substrate measured after 15 mins by Ellman's method relative to control
Details: probe butyrylthiocholine

Compound	inhibition at 0.25 h, 50 µM [%]
COc1cc2c(cc1OC)C(=O)/C(=C/c1ccc(CN3CCN(Cc4ccccc4)CC3)c(O)c1)O2	< 5
COc1cc2c(cc1OC)C(=O)/C(=C/c1ccc(CN3CCCC3)c(O)c1)O2	19
COc1cc2c(cc1OC)C(=O)/C(=C/c1ccc(CN3CCOCC3)c(O)c1)O2	< 5
CCN1CCN(Cc2ccc(/C=C3\Oc4cc(OC)c(OC)cc4C3=O)cc2O)CC1	< 5

Biological target: T4, Amine oxidase [flavin-containing] B (Homo sapiens, UniProt P27338)
T4 sequence (P27338 whole entry): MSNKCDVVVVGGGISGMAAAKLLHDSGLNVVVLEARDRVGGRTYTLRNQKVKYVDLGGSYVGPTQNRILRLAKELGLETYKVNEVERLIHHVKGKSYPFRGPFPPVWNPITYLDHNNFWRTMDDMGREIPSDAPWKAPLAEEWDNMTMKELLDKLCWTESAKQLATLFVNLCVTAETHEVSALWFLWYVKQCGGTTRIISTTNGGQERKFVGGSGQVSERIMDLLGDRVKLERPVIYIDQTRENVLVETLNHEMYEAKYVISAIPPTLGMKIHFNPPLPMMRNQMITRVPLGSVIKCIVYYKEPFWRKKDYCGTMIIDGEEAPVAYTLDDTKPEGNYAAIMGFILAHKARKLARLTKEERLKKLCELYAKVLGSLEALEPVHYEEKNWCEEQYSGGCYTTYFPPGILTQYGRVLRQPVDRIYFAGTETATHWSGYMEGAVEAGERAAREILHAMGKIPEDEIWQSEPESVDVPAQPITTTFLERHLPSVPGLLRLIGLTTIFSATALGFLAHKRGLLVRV
Assay: Inhibition of recombinant human MAO-B expressed in baculovirus infected BTI insect cells at 10 uM using kynuramine as substrate incubated for 30 mins by fluorescence assay relative to control
Details: 0.5 h

Compound	inhibition at 10 µM [%]
COc1cc2c(cc1OC)C(=O)/C(=C/c1ccc(CN3CCN(Cc4ccccc4)CC3)c(O)c1)O2	6.9
COc1cc2c(cc1OC)C(=O)/C(=C/c1ccc(CN3CCCC3)c(O)c1)O2	37.9
COc1cc2c(cc1OC)C(=O)/C(=C/c1ccc(CN3CCOCC3)c(O)c1)O2	3.3
CCN1CCN(Cc2ccc(/C=C3\Oc4cc(OC)c(OC)cc4C3=O)cc2O)CC1	2.6

System: not listed separately
Assay: Inhibition of Cu2+-mediated aggregation of human amyloid beta (1 to 42 residues) at 25 uM after 24 hrs by thioflavin T-based fluorometric assay relative to control
Type: functional
Details: not given

Compound	inhibition [%]
COc1cc2c(cc1OC)C(=O)/C(=C/c1ccc(CN3CCN(Cc4ccccc4)CC3)c(O)c1)O2	38.7
COc1cc2c(cc1OC)C(=O)/C(=C/c1ccc(CN3CCCC3)c(O)c1)O2	38.8
COc1cc2c(cc1OC)C(=O)/C(=C/c1ccc(CN3CCOCC3)c(O)c1)O2	28.5
CCN1CCN(Cc2ccc(/C=C3\Oc4cc(OC)c(OC)cc4C3=O)cc2O)CC1	39.7
